# Reference: ChEMBL document CHEMBL1201862, “PubChem BioAssay data set” (2004)
# Activity calls are given as the source filed them.
# Key:
# [1] = target: T1, Zinc finger protein mex-5 (Caenorhabditis elegans, UniProt Q9XUB2); experiment: MEX-5/TCR-2 RNA interaction inhibitors, dose response, biochemical, C. elegans, fluorescence polarization (AID 1960)
# T1 sequence (Q9XUB2 whole entry): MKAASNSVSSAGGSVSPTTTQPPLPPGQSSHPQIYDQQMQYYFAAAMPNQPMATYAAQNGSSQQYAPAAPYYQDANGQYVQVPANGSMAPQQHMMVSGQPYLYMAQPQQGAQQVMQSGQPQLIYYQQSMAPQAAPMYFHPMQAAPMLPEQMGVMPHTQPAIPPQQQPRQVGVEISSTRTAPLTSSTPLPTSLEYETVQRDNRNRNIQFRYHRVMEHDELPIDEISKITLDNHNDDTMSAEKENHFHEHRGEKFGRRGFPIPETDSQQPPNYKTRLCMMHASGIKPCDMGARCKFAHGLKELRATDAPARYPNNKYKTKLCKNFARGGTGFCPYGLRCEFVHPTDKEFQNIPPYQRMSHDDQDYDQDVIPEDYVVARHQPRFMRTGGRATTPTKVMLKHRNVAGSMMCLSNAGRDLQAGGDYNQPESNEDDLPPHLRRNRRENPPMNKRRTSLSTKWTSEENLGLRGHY
# [2] = nonselective inhibitors of cellular cAMP signaling, dose response, counter-screen for MC4R biased antagonist project, cell-based, TR-FRET cAMP detection (AID 602305); assay type: functional;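 also: U2OS cells stimulated with forskolin near its EC80 as the cAMP inducer; potency is for inhibition of forskolin-stimulated cAMP signaling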
# Melanocortin receptor 4 = Melanocortin receptor 4 (Homo sapiens, UniProt P32245); experiment: MC4R antagonist potency on cAMP, dose response, cell-based, TR-FRET, biased antagonists (AID 602298); assay type: functional;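 also: antagonist potency against agonist-stimulated cAMP production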
# [3] = target: T2, RNA-binding protein pos-1 (Caenorhabditis elegans, UniProt G5EF15); experiment: inhibitors of POS-1/mex-3 RNA binding, dose response, biochemical, fluorescence polarization (AID 1964);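 also: purified POS-1 fused to maltose binding protein made in E. coli; potency of compounds blocking POS-1 binding to fluorescent RNA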
# T2 sequence (G5EF15 whole entry): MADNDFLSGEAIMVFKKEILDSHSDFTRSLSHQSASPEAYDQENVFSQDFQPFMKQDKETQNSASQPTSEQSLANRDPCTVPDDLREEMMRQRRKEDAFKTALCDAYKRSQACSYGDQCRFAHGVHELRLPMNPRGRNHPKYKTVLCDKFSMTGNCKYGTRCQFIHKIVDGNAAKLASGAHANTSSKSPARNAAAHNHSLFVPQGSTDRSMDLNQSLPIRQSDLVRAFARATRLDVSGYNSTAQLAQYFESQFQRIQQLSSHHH
# [4] = target: Nuclear receptor subfamily 5 group A member 2 (Homo sapiens, UniProt O00482); assay type: functional, cell-based;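 also: HEK293T cells transfected with LRH-1 and a StAR promoter luciferase reporter; potency for inhibitors that lower LRH-1 driven reporter light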
# Cytochrome P450 3A4 = Cytochrome P450 3A4 (Homo sapiens, UniProt P08684);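 also: CYP3A4 tested as one member of a cytochrome P450 panel screen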
# [5] = StAR promoter reporter inhibition counter-screen, dose response, counter-screen for LRH-1 inverse agonist project, cell-based, luminescence, luciferase reporter (AID 651969); assay type: functional
# Steroidogenic factor 1 = Steroidogenic factor 1 (Homo sapiens, UniProt Q13285); experiment: Counterscreen for inverse agonists of the liver receptor homolog-1 (LRH-1; NR5A2): Luminescence-based cell-based high throughput dose response assay to identify inverse agonists of the Steroidogenic Factor 1 Nuclear Receptor (SF1; NR5A1).; assay type: functional
# [6] = HeLa cell cytotoxicity, dose response, cytotoxicity control for MgcRacGAP inhibitor project (AID 624300); assay type: functional
# [7] = target: T3, Rac GTPase-activating protein 1 (Homo sapiens, UniProt Q9H0H5); experiment: MgcRacGAP GTPase-activating activity inhibitors, confirmation, biochemical, ADP Hunter fluorescence, primary and confirmatory (AID 624330); assay type: functional
# T3 sequence (Q9H0H5 whole entry): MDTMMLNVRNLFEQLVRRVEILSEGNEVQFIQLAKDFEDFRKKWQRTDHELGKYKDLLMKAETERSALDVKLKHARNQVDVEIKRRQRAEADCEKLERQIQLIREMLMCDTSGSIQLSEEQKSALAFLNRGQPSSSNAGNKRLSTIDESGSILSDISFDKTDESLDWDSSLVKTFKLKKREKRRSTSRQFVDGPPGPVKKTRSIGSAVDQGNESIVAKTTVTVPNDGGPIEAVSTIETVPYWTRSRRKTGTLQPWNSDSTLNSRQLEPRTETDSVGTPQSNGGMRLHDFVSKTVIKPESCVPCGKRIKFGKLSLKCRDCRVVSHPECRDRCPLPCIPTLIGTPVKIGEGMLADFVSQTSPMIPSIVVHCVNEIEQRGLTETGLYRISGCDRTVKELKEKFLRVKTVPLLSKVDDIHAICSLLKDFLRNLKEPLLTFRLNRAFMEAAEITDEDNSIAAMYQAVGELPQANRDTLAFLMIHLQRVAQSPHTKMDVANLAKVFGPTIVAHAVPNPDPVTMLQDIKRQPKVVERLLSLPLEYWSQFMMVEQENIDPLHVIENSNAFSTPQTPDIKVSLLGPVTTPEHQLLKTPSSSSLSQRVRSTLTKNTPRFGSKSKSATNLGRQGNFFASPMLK
# [8] = target: T4, Corticotropin-releasing factor receptor 2/Corticotropin-releasing factor-binding protein (Homo sapiens, UniProt P24387+Q13324); experiment: Dose Response confirmation of uHTS hits for small molecule antagonists of the CRF-binding protein and CRF-R2 receptor complex.; assay type: functional; details: read-out: IC50_Mean
# T4 sequence (Q13324 whole entry): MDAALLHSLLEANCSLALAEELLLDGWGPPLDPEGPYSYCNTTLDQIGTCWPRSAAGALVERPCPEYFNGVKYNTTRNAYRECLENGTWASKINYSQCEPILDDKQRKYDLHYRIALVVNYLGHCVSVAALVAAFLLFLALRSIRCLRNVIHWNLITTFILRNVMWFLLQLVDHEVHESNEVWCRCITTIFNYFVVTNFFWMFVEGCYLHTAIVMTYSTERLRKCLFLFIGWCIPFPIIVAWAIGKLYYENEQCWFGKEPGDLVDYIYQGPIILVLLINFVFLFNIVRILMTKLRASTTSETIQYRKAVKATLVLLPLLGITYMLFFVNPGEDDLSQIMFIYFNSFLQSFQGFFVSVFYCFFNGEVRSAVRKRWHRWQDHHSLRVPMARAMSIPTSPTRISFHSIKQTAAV
# T4 sequence (P24387 whole entry): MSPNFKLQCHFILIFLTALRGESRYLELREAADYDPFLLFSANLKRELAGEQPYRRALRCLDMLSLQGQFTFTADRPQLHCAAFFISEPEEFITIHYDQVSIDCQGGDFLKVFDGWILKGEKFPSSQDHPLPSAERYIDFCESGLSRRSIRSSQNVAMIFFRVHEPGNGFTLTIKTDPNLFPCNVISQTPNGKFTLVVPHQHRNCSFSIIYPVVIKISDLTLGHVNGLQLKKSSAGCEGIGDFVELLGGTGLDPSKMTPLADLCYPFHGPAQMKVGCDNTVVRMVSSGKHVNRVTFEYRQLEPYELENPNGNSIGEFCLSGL
# [9] = CRF-BP/CRF-R2 complex antagonists, dose response, cell-based, uHTS hits, 384-well (AID 651639); assay type: functional, Homo sapiens; details: read-out: IC50_Mean
# [10] = target: T4, Corticotropin-releasing factor receptor 2/Corticotropin-releasing factor-binding protein; experiment: activators of CRF receptor 2 with binding protein – uHTS hits, confirmation (AID 602473); assay type: functional; details: read-out: EC50_Mean
# Fatty acid synthase [11] = target: T5, Fatty acid synthase (Homo sapiens, UniProt P49327); experiment: FAS thioesterase domain inhibitors, dose response, biochemical, kinetic fluorescence intensity (AID 624326); assay type: functional;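 also: rate of fluorescence rise from hydrolysis of a fluorogenic O-methyl fluorescein ester substrate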
# Fatty acid synthase [12] = target: T5, Fatty acid synthase; experiment: FAS thioesterase domain inhibitors, dose response, biochemical, endpoint fluorescence intensity, uHTS hits (AID 624327); assay type: functional;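 also: fluorescence from hydrolysis of an O-methyl fluorescein acyl ester substrate by the enzyme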
# H4 = experiment: Luminescence Cell-Based Dose Response HTS to Identify Activators of 5'UTR Stem-Loop Driven Prion Protein mRNA Translation in H4 Neuroglioblastoma Cells. [Related pubchem assays: 1829 (Project Summary), 1814 (Primary HTS)]; assay type: functional; details: Homo sapiens
# [13] = Luminescence Cell-Based Dose Confirmation HTS to Identify Activators of 5'UTR Stem-Loop Driven Alpha-Synuclein mRNA Translation in H4 Neuroglioblastoma Cells. [Related pubchem assays: 1829 (Project Summary), 1814 (Primary HTS)]; assay type: functional
# [14] = Luminescence Cell-Based Dose Response HTS to Identify Activators of Luciferase Translation or Activity in H4 […] Cells. [Related pubchem assays: 1829 (Project Summary), 1814 (Primary HTS)]; assay type: functional
# [15] = A Cell Based Secondary Assay to Explore Cytotoxicity in THP-1 Cells of Compounds that Modulate Mycobacterium tuberculosis in Media Containing Glycerol versus Media without Glycerol (2).; assay type: functional
# [16] = Vero cell cytotoxicity, cytotoxicity control for M. tuberculosis inhibitor project, purified and synthesized samples, set 3 (AID 504684); assay type: functional
# [17] = HepG2 cell cytotoxicity, dose response, cytotoxicity control for Shn3 inhibitor project, CellTiter-Glo, cherry-picked (AID 624134); assay type: functional, cell-based
# [18] = target: Heat shock protein HSP 90-alpha (Homo sapiens, UniProt P07900); assay type: functional, organism-based
# [19] = target: Photoreceptor-specific nuclear receptor (Homo sapiens, UniProt Q9Y5X4); assay type: functional, cell-based;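 also: CHO-S cells with Gal4-NCOR and VP16-NR2E3 two-hybrid luciferase reporter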
# [20] = Shn3 3'UTR reporter inhibitors, dose response, cell-based, Clone20 osteoblasts, firefly luciferase, cherry-picked (AID 624132); assay type: functional;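 also: firefly luciferase luminescence from reporter carrying the Shn3 3'UTR in osteoblasts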
# [21] = control 3'UTR Renilla luciferase suppression, dose response, counter-screen for Shn3 inhibitor project, cell-based, Clone20-Shn3RL, cherry-picked (AID 624133); assay type: functional
# T5 sequence (P49327 whole entry, the tested form may be a part): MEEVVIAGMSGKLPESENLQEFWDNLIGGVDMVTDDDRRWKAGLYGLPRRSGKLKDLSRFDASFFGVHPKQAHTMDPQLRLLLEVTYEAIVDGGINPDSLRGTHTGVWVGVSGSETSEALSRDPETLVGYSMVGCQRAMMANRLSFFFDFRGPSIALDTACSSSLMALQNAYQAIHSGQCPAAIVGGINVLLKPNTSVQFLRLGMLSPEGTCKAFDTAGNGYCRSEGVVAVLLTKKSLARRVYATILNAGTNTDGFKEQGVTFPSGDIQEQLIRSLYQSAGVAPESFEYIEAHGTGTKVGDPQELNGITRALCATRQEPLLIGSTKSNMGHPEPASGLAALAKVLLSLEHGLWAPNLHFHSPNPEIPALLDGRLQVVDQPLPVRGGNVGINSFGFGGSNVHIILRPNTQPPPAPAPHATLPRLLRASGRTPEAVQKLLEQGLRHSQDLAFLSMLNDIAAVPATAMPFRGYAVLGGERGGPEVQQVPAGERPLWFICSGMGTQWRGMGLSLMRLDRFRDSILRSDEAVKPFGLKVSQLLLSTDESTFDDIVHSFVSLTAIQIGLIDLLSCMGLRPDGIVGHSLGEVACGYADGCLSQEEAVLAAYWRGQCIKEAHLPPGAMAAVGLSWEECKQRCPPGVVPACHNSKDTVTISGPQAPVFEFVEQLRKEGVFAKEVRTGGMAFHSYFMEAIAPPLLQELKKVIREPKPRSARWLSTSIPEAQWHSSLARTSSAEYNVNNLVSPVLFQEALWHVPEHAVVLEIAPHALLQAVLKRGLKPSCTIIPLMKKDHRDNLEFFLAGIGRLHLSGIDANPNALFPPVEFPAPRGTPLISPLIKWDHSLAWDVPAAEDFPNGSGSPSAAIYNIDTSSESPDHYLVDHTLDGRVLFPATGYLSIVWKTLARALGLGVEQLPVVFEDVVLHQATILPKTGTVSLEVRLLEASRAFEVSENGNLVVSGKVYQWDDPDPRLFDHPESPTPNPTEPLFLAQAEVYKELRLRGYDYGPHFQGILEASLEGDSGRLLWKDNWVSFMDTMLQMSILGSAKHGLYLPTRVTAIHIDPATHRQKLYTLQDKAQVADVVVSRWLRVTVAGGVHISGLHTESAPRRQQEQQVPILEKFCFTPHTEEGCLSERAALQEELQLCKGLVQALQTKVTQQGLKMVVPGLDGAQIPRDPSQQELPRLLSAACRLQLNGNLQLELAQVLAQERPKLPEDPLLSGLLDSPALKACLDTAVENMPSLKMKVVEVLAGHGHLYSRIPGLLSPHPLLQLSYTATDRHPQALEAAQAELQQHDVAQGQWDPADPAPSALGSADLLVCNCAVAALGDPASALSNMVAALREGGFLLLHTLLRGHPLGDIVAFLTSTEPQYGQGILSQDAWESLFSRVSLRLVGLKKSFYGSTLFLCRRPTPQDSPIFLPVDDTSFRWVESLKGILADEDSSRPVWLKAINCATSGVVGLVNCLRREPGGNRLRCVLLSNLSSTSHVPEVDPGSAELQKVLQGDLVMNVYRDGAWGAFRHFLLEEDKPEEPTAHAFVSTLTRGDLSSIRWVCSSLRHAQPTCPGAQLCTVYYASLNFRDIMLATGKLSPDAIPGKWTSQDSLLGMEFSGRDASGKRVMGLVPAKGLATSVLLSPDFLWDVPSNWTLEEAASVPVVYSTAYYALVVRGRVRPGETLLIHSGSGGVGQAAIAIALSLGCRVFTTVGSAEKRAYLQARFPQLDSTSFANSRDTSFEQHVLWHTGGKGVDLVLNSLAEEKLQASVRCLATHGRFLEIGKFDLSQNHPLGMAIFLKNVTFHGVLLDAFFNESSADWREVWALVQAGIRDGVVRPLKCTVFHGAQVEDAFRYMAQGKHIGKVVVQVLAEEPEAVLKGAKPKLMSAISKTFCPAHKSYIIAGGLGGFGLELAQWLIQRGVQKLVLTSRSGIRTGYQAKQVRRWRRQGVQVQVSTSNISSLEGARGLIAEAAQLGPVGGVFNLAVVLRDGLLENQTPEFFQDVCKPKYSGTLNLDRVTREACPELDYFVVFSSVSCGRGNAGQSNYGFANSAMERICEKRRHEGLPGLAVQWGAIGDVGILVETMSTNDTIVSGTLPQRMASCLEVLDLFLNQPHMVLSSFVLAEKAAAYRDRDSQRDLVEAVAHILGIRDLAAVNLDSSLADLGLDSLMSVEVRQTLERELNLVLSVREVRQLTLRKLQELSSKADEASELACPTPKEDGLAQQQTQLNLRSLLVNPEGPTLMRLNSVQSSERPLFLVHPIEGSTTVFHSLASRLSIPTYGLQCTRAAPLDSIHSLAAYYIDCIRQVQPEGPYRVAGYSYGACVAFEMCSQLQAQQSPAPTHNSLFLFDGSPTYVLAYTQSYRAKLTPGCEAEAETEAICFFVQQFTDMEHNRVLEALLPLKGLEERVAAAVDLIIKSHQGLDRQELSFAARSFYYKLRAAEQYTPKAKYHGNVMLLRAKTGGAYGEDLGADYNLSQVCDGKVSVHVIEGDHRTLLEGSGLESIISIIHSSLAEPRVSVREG
# Nuclear receptor subfamily 5 group A member 2, sequence (O00482 whole entry): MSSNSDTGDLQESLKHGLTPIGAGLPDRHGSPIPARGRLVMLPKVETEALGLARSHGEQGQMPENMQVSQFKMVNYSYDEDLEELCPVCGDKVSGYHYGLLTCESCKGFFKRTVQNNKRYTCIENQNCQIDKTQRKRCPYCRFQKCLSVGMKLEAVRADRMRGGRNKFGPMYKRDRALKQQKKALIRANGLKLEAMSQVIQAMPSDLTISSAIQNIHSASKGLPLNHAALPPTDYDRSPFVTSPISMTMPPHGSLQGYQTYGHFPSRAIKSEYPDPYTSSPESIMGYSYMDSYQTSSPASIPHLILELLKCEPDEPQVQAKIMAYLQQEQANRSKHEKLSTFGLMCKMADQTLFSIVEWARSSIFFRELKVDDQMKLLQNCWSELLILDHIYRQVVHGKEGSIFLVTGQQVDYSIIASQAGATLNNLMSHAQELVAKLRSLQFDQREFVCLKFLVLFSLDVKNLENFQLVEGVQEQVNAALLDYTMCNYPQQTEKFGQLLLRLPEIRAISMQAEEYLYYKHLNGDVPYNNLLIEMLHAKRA
# Steroidogenic factor 1, sequence (Q13285 whole entry): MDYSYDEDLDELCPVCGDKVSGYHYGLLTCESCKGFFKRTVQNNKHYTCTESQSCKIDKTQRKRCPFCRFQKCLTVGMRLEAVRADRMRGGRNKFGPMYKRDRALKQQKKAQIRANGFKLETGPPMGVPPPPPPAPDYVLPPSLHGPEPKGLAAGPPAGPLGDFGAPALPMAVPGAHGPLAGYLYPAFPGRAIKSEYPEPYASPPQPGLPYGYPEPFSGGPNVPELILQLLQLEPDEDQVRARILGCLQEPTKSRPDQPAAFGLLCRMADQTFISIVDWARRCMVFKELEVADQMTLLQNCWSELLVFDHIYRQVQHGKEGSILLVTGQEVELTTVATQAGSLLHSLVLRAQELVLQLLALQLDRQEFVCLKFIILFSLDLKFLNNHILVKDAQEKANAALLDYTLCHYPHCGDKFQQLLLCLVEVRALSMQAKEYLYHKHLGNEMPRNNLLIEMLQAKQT
# Cytochrome P450 3A4, sequence (P08684 whole entry): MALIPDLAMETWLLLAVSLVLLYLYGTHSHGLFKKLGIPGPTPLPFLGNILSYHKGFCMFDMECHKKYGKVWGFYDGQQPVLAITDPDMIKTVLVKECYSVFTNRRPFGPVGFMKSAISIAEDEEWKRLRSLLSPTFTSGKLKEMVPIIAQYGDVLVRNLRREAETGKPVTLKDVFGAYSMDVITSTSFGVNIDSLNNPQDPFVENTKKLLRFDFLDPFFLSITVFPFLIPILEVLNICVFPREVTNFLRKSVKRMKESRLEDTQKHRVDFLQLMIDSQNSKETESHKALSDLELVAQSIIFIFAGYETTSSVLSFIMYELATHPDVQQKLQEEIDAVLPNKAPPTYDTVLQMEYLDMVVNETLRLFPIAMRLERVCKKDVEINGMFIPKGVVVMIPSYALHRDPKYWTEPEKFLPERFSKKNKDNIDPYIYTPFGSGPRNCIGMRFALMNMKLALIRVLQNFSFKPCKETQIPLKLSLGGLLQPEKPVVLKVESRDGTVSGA
# Photoreceptor-specific nuclear receptor, sequence (Q9Y5X4 whole entry, the tested form may be a part): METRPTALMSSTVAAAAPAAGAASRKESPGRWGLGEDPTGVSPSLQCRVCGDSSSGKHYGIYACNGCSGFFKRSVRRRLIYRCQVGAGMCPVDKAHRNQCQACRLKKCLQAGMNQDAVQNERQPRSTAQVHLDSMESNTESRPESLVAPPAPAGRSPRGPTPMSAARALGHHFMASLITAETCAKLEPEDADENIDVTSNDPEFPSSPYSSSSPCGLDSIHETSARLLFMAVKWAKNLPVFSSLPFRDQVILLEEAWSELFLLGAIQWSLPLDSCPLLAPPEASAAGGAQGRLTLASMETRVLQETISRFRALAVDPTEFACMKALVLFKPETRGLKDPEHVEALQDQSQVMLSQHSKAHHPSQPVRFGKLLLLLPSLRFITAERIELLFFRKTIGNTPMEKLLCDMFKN
# Melanocortin receptor 4, sequence (P32245 whole entry, the tested form may be a part): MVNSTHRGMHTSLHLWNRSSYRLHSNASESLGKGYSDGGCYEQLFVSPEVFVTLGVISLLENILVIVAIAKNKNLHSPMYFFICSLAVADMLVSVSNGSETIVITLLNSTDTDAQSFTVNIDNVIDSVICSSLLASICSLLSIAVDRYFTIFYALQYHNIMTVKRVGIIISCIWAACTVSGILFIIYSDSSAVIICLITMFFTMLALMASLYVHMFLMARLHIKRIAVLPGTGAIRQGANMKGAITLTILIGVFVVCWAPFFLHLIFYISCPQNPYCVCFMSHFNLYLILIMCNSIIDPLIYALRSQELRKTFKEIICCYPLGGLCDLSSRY
structure (smiles),measurement,setting,value
CCOC(=O)CSc1nc2ccc(Nc3nc(N4CCOCC4)nc(N4CCOCC4)n3)cc2s1,EC50,[1],> 300 µM (not active)
same,IC50,[2],> 64.6 µM (inactive)
same,IC50,Melanocortin receptor 4,> 64.6 µM (inactive)
same,EC50,[3],> 300 µM (not active)
Cc1sc(NC(=O)C(C)C)c(C(=O)Nc2ccccc2)c1C,IC50,[4],11.6 µM (inactive)
same,AC50,Cytochrome P450 3A4,inconclusive
same,IC50,[5],35.9 µM (inactive)
same,IC50,Steroidogenic factor 1,3.85 µM (active)
COc1ccc(N2CCN(CC(O)COC(c3ccc(F)cc3)c3ccc(F)cc3)CC2)cc1 (stereo not given),CC50,[6],100 µM (active)
same,IC50,[7],92.8 µM (active)
COc1ccccc1Nc1nc(N)nc(CSC(=S)N2CC(C)CC(C)C2)n1 (stereo not given),IC50,[8],32 µM (active)
same,IC50,[9],> 20 µM (inactive)
same,EC50,[10],> 53 µM (inactive)
Cc1ccn2c(=O)nc(SCC(=O)Nc3ccc4c(c3)OCCO4)nc2c1,IC50,[4],35.9 µM (inactive)
same,IC50,[5],35.9 µM (inactive)
same,IC50,Steroidogenic factor 1,3.98 µM (active)
CN(Cc1ccccc1)C(=O)COC(=O)c1cc([N+](=O)[O-])ccc1N1CCOCC1,IC50,Fatty acid synthase [11],0.617 µM (active)
same,IC50,Fatty acid synthase [12],0.539 µM (active)
CCn1c(SC(C)C)nnc1-c1cc(-c2ccccc2)sc1N,CC50,[6],100 µM (active)
same,EC50,H4,> 120 µM (not active)
same,EC50,[13],> 120 µM (not active)
same,IC50,[7],31.1 µM (active)
same,EC50,[14],> 120 µM (not active)
COCCCNC(=O)C[C@H]1C[C@H](C(=O)N2CCOCC2)[C@@]2(CCC3CCCC3)c3[nH]c4cc(-c5ccco5)ccc4c3CCN2C1=O,IC50,Fatty acid synthase [11],9.08 µM (active)
same,IC50,Fatty acid synthase [12],6.51 µM (active)
CCOC(=O)/C(C#N)=C\c1ccc2c(c1)OCO2,IC50,[8],2.02 µM (active)
same,IC50,[9],> 20 µM (inactive)
same,EC50,[10],> 53 µM (inactive)
Cc1cc(Br)ccc1NC(=O)CSc1nnc(CN2CCOCC2)n1C,IC50,[4],40.2 µM (inactive)
same,IC50,[5],35.9 µM (inactive)
same,IC50,Steroidogenic factor 1,24.7 µM (inactive)
COc1cccc(-c2cnc3c(NC=O)cc(-c4ccc(S(C)(=O)=O)cc4)cn23)c1,IC50,Fatty acid synthase [11],9.95 µM (active)
same,IC50,Fatty acid synthase [12],11.2 µM (active)
CCn1c2ccccc2c2cc(NC(=O)CSc3nc(C)cc(=O)[nH]3)ccc21,CC50,[15],41.1 µM (active)
same,CC50,[16],56 µM (active)
O=C(OC12CC3CC(CC(C3)C1)C2)c1ccc(NCc2cc(O)ccc2O)cc1,AC50,[17],53 µM (active)
same,AC50,[18],5.15 µM (active)
same,IC50,[19],4.09 µM (active)
same,AC50,[20],2.33 µM (active)
same,AC50,[21],3.99 µM (active)
